Measured values: patent US8614064B2, “Methods of diagnosing atherosclerosis by measuring ApoCI” (The Johns Hopkins University, priority 2003, dated 2013)

Assays:
acid sphingomyelinase = target: T1, acid sphingomyelinase (Homo sapiens, UniProt P17405); assay: Acid sphingomyelinase activity in cultured human ASMC (specificity of GW4869); format: cell-based; conditions: with GW4869; control 400 nmol/mg protein; did not alter
T1 construct: acid sphingomyelinase activity (control: 400 nmol/mg protein; GW4869: 340 nmol/mg protein) in cultured human ASMC; host or cells: cultured human ASMC
T1 sequence (P17405 47-631): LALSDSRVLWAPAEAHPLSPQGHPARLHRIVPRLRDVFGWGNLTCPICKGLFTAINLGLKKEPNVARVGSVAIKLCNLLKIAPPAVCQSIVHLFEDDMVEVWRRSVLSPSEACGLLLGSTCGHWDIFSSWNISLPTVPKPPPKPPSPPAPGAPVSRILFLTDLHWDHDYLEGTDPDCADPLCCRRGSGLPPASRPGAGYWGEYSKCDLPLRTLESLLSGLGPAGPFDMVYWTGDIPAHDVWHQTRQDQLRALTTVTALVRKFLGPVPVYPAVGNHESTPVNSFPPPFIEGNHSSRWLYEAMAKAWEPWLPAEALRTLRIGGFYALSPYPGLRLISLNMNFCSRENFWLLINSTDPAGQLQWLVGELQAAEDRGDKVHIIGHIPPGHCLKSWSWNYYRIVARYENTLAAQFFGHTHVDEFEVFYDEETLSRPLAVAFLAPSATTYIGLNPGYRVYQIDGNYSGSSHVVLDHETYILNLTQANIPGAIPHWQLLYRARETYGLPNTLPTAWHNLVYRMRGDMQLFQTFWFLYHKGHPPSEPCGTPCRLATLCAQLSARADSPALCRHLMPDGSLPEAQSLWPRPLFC

N-SMase = assay: Neutral sphingomyelinase assay in treated ASMC ([14C]sphingomyelin substrate); format: cell-based, human
Experimental: FIGS. 3A-3C depict the effects of ApoCI, ApoCIII, TNF-α, ApoCI-enriched HDL, and ApoCI-poor HDL on the activity of N-SMase in ASMC. Confluent cultures of ASMC were preincubated for 30 minutes with serum-free (control) medium, then ApoCI (2.5 μg/mL medium), ApoCIII (2.5 μg/mL medium), TNF-α (20 ng/mL medium) (FIG. 3A, top), or ApoCI-enriched HDL (1 μg apoAI/mL medium), or ApoCI-poor HDL (5 μg apoA-I/mL medium) (FIG. 3B, middle) were added individually to cells. The cells were then incubated and harvested at the indicated time points, and the activity was of N-SMase determined using [^14C]sphingomyelin as substrate. The N-SMase activity in control cells was 22 nmol/h per milligram cell protein, and this value was considered as 100% activity. In a separate experiment (FIG. 3C bottom), cells (0.5×10^5) were seeded in P60 Petri dishes and grown in DMEM supplemented with 10% fetal bovine serum for 5 days. After preincubation of cells for 30 minutes in serum-free medium, increasing amounts of ApoCI were added. After incubation for 10 minutes, cells were harvested, and N-SMase activity was measured.
After stimulation with ApoCI ApoCI-enriched HDL and ApoCI-poor HDL, the cells were washed with 5 ml of PBS and harvested. The pellets were stored frozen at −70° C. and resuspended in 0.5 ml of buffer (100 mM Tris-HCl pH 7.4, 0.1% Triton X-100, 1 mM EDTA and protease inhibitors). The cell suspension was sonicated 3 times (3-s bursts) using a probe sonicator and centrifuged at 500×g at 4° C. for 5 min. The supernatant was used as the enzyme source. 100 μg of protein was assayed for neutral sphingomyelinase activity in a buffer consisting of 50 mM Tris-HCl, pH 7.4, 0.1% Triton X-100, 0.1 mg of bovine serum albumin, 5 mM MgCl2 and […] of [^14C]sphingomyelin (specific activity 50 mCi/mmol, from American Radiolabled Chemicals (St. Louis, Mo.). The samples were incubated at 37° C. for 2 h and terminated with the addition of 1 ml of 10% trichloroacetic acid. The precipitate was pelleted (1000×g at 4° C. for 30 min) and 1 ml of the supernatant was extracted with 1 ml of anhydrous diethyl ether. About 0.5 ml of the aqueous phase was removed for liquid scintillation counting (Ghosh, N., and Chatterjee, S. (1998) J. Biol. Chem. 264, 12554-12561).

Src kinase = assay: Analysis of p53/p56 Lyn (Src) kinase expression in AoSMC; format: cell-based, human; conditions: ApoCI-treated cells
Experimental: Confluent cultures of AoSMC were incubated with ApoCI (2.5 μg/ml medium), ApoCIII (2.5 μg/ml medium), ApoCI-enriched HDL (1 μg apoA-I/ml medium), or […] (5 μg apoA-I/ml medium). Cells were harvested in PBS at various time intervals and stored frozen in the presence of the protease inhibitor cocktail above. Western analysis for p53/p56 Lyn kinase was performed using primary anti-Lyn p53/p56 antibody (1:300) (Santa Cruz Biotechnology) and chemiluminescence (Amersham Pharmacia Biotech, Piscataway, N.J.).

[1] = target: T2, lecithin cholesterol acyl transferase (Homo sapiens, UniProt P04180); conditions: % of that of apoA-I; Soutar et al. 1975; cited from earlier work
T2 sequence (P04180 25-440): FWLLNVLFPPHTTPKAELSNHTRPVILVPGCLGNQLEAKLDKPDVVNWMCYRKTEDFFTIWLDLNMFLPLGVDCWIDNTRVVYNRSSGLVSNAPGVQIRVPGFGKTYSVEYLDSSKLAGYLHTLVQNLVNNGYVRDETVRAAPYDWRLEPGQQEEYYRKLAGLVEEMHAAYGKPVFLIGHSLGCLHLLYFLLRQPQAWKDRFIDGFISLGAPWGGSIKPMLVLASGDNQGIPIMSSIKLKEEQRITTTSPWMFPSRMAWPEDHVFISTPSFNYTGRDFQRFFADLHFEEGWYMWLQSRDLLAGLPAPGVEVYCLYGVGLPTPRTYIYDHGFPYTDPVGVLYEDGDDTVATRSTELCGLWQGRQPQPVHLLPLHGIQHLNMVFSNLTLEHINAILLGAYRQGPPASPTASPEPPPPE

## O=C(/C=C/c1ccc(/C=C/C(=O)Nc2ccc(C3=NCCN3)cc2)cc1)Nc1ccc(C2=NCCN2)cc1 [GW4869]
Acid sphingomyelinase
  acid sphingomyelinase activity: 340 nmol/mg protein

## ApoCIII: purified human ApoCIII purchased from Academy Bio-Medical Company, used as negative control
N-SMase; ApoCIII 2.5 μg/mL, ApoCI-poor HDL 5 μg apoA-I/mL, time course to 60 min
  pattern of N-SMase stimulation with time: Such a pattern was not seen

## Apolipoprotein C-I (TPDVSSALDKLKEFGNTLEDKARELISRIKQSELSAKMREWFSETFQKVKEKLKIDS; UniProt P02654 27-83, looked up) [ApoCI, 6.6-kDa single-chain plasma protein of 57 amino acids; purified human ApoCI purchased from Academy Bio-Medical Company]
N-SMase; 5 min, ApoCI 2.5 μg/mL, TNF-α 20 ng/mL, ApoCI-enriched HDL 1 μg apoA-I/mL, control 22 nmol/h per mg protein = 100%
  increase in the activity of N-SMase at 5 minutes: ~2 fold
N-SMase; ApoCI 2.5 μg/mL medium, 10 min incubation
  maximum increase in N-SMase activity, concentration dependence (FIG. 3C): 1.5 fold
Src kinase
  effect on Src kinase: stimulated
[1]
  stimulation of lecithin cholesterol acyl transferase relative to apolipoprotein A-I: ~80%
